Assay results from patent US10344060B2 (priority 2013, dated 2019).

Columns and labels:
hNav1.4 = hNav1.4 (Homo sapiens, UniProt P35499); test: cell-based; type: cell-based; settings: ratio of PX tonic IC50 values
hNav1.5 = hNav1.5 (Homo sapiens, UniProt Q14524); test: cell-based; settings: ratio of PX tonic IC50 values
Chain of hNav1.5 (Q14524 whole entry): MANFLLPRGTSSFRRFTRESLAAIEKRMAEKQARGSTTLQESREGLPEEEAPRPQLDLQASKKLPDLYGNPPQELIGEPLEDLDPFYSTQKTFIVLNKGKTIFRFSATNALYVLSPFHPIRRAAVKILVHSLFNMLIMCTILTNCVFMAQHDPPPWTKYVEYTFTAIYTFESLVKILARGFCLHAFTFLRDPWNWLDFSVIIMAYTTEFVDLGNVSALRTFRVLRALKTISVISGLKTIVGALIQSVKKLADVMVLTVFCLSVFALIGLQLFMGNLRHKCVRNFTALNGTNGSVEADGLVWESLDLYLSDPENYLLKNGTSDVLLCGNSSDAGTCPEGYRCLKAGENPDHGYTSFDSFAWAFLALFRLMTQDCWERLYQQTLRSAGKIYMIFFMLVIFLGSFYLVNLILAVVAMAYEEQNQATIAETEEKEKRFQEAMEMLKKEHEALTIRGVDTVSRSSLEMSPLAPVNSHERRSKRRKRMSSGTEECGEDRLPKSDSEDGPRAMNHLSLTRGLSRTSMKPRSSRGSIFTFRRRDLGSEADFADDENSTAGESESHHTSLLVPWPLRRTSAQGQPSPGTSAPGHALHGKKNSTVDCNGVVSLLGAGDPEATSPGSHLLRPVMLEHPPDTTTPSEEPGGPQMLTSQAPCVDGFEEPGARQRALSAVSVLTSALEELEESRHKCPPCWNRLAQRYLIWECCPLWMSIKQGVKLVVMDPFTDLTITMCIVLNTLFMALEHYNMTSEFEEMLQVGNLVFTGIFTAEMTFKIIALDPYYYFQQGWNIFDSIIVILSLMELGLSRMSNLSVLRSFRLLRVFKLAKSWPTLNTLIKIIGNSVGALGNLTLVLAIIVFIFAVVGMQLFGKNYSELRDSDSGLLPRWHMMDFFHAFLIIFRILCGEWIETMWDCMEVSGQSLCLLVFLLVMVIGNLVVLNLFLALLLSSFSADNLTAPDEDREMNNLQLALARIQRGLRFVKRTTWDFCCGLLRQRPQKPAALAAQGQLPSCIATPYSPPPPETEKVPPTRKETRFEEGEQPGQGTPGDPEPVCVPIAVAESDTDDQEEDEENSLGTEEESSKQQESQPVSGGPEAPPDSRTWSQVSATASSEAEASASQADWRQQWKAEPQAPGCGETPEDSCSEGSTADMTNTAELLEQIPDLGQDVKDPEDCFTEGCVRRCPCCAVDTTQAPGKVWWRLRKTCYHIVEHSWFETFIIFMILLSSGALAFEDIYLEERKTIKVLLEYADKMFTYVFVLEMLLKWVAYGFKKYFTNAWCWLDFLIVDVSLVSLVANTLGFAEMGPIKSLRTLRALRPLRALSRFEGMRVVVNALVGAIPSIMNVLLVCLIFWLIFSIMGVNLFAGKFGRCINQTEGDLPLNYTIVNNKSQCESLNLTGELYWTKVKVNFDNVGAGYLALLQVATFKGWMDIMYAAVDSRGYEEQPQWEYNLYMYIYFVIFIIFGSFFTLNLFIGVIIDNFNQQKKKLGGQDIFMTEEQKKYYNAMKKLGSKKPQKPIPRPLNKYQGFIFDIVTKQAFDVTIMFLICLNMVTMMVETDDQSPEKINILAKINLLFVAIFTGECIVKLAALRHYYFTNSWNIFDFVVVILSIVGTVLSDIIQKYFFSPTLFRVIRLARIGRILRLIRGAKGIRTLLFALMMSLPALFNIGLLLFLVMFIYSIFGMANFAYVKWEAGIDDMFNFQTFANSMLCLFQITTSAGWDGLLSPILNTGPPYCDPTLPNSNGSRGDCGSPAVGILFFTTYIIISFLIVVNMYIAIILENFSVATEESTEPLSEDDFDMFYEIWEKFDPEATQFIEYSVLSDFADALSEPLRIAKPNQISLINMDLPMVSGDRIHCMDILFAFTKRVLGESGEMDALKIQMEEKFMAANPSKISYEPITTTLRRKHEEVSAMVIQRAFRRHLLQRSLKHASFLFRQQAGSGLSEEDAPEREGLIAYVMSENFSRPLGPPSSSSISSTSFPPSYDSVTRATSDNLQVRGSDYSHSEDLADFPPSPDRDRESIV

Chain of hNav1.4 (P35499 whole entry): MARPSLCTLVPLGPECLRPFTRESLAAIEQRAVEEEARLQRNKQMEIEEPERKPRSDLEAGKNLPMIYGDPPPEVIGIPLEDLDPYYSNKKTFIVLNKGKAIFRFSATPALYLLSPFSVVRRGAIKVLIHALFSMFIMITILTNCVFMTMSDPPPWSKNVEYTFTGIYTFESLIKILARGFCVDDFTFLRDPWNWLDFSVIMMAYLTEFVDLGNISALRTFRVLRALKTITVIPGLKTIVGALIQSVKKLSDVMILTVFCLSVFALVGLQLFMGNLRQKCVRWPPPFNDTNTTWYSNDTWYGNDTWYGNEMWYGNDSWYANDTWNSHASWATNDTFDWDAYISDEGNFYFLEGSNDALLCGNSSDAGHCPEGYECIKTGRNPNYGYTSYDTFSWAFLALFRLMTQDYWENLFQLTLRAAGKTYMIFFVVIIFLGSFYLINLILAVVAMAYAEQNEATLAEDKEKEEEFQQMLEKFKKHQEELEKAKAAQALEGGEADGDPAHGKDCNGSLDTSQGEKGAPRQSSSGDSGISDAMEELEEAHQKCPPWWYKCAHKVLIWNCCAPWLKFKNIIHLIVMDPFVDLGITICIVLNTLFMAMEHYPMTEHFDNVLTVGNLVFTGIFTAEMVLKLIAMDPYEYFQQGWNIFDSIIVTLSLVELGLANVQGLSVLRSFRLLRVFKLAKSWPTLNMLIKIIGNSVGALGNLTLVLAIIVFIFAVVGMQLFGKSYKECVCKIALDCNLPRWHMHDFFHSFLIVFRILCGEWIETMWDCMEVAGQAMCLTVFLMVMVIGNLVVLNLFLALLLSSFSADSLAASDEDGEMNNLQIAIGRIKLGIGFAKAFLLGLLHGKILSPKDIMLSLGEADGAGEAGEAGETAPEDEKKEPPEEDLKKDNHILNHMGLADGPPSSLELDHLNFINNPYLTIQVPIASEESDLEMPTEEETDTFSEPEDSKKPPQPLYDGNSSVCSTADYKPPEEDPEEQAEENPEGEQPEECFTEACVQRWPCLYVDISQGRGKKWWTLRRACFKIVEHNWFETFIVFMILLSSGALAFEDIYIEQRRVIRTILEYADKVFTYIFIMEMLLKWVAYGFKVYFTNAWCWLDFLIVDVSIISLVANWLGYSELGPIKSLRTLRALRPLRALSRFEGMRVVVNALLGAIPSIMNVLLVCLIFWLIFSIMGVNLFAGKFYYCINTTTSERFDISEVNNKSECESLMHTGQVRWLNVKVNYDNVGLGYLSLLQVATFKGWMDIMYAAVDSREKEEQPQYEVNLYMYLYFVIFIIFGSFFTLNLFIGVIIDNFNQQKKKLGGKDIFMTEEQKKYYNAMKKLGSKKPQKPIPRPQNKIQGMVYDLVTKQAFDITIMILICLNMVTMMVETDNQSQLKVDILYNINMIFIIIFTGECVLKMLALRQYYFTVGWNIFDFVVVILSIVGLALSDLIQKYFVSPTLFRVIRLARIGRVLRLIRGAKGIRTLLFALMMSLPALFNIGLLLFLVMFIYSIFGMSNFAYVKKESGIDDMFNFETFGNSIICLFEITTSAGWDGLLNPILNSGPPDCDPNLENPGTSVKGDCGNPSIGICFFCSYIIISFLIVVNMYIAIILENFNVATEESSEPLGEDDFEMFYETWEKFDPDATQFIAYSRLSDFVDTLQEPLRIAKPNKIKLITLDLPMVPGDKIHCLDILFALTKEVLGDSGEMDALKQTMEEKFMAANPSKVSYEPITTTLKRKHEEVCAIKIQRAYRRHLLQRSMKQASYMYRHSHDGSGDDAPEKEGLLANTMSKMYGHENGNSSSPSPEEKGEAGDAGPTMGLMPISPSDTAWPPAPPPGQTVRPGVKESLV

SMILES	Nav1.4/Nav1.7 (hNav1.4; Table 12)	Nav1.5/Nav1.7 (hNav1.5; Table 12)	Nav1.4/Nav1.7 (hNav1.4; Table 13)	Nav1.5/Nav1.7 (hNav1.5; Table 13)
CCCC[C@@H]1NC(=O)[C@H](Cc2c[nH]c3ccccc23)NC(=O)[C@H](CCCCN)NC(=O)[C@H](CCC(N)=O)NC(=O)[C@@H](NC(=O)[C@@H](N)Cc2ccc(O)cc2)CSSC[C@@H]2NC(=O)[C@@H]3CSSC[C@@H](C(=O)N[C@@H](CCCNC(=N)N)C(=O)N[C@@H](CCCCN)C(=O)N[C@H](C(=O)N[C@@H](Cc4c[nH]c5ccccc45)C(N)=O)[C@@H](C)CC)NC(=O)[C@H](Cc4c[nH]c5ccccc45)NC(=O)[C@H](CC(C)C)NC(=O)[C@H](CCCCN)NC(=O)[C@H](CSSC[C@H](NC(=O)[C@H]([C@@H](C)O)NC(=O)[C@H](Cc4c[nH]c5ccccc45)NC1=O)C(=O)N[C@@H](CC(=O)O)C(=O)N[C@@H](CCCCN=[N+]=[N-])C(=O)N[C@@H](CCCCN)C(=O)N[C@@H](CCCNC(=N)N)C(=O)N[C@@H](C)C(=O)N3)NC(=O)[C@H](CCC(=O)O)NC(=O)[C@H](CC(C)C)NC(=O)CNC(=O)[C@H](CCC(=O)O)NC2=O [compound 305]	0	0		
C#CC[C@@H]1NC(=O)[C@H](CC(=O)O)NC(=O)[C@@H]2CSSC[C@@H]3NC(=O)[C@H](CCCNC(=N)N)NC(=O)[C@H](CC(C)C)NC(=O)CNC(=O)[C@H](CCC(=O)O)NC(=O)[C@H](CSSC[C@H](NC(=O)[C@@H](N)Cc4ccc(O)cc4)C(=O)N[C@@H](CCC(N)=O)C(=O)N[C@@H](CCCCN)C(=O)N[C@@H](Cc4c[nH]c5ccccc45)C(=O)N[C@@H](CCCC)C(=O)N[C@@H](Cc4c[nH]c5ccccc45)C(=O)N[C@@H]([C@@H](C)O)C(=O)N2)NC(=O)[C@H](CSSC[C@@H](C(=O)N[C@@H](CCCNC(=N)N)C(=O)N[C@@H](CCCCN)C(=O)N[C@@H](CCC(=O)O)C(=O)N[C@H](C(N)=O)[C@@H](C)CC)NC(=O)[C@H](Cc2c[nH]c4ccccc24)NC(=O)[C@H](CC(C)C)NC(=O)[C@H](CCCCN)NC3=O)NC(=O)[C@H](C)NC(=O)[C@H](CCCNC(=N)N)NC(=O)[C@H](CCCCN)NC1=O [compound 330]	291	7841		
CCCC[C@@H]1NC(=O)[C@H](Cc2c[nH]c3ccccc23)NC(=O)[C@H](CCCCN)NC(=O)[C@H](CCC(N)=O)NC(=O)[C@@H](NC(=O)[C@H](Cc2ccc(O)cc2)NC(=O)[C@@H](N)Cc2cn(CCOCCOCCOCCOCCOCCOCCOCCOCCOCCOCCOCCNC(=O)CSCc3ccccc3)nn2)CSSC[C@@H]2NC(=O)[C@@H]3CSSC[C@@H](C(=O)N[C@@H](CCCNC(=N)N)C(=O)N[C@@H](CCCCN)C(=O)N[C@H](C(=O)N[C@H](C(N)=O)[C@@H](C)CC)[C@@H](C)CC)NC(=O)[C@H](Cc4c[nH]c5ccccc45)NC(=O)[C@H](CC(C)C)NC(=O)[C@H](CCCCN)NC(=O)[C@H](CSSC[C@H](NC(=O)[C@H]([C@@H](C)O)NC(=O)[C@H](Cc4c[nH]c5ccccc45)NC1=O)C(=O)N[C@@H](CC(=O)O)C(=O)N[C@@H](CO)C(=O)N[C@@H](CCCCN)C(=O)N[C@@H](CCCNC(=N)N)C(=O)N[C@@H](C)C(=O)N3)NC(=O)[C@H](CCCNC(=N)N)NC(=O)[C@H](CC(C)C)NC(=O)CNC(=O)[C@H](CCC(=O)O)NC2=O [compound 427]			9	1416
C#CC[C@H](N)C(=O)NCCOCCOCCOCCOCCC(=O)NCCCC[C@@H]1NC(=O)[C@H](CCCNC(=N)N)NC(=O)[C@H](CCCCN)NC(=O)[C@H](CO)NC(=O)[C@H](CC(=O)O)NC(=O)[C@@H]2CSSC[C@@H]3NC(=O)[C@H](CCC(=O)O)NC(=O)[C@H](CC(C)C)NC(=O)CNC(=O)[C@H](CCC(=O)O)NC(=O)[C@H](CSSC[C@H](NC(=O)[C@@H](N)Cc4ccc(O)cc4)C(=O)N[C@@H](CCC(N)=O)C(=O)N[C@@H](CCCCN)C(=O)N[C@@H](Cc4c[nH]c5ccccc45)C(=O)N[C@@H](CCCC)C(=O)N[C@@H](Cc4c[nH]c5ccccc45)C(=O)N[C@@H]([C@@H](C)O)C(=O)N2)NC(=O)[C@H](CSSC[C@@H](C(=O)N[C@@H](CCCNC(=N)N)C(=O)N[C@@H](CCCCN)C(=O)N[C@H](C(=O)N[C@@H](Cc2c[nH]c4ccccc24)C(N)=O)[C@@H](C)CC)NC(=O)[C@H](Cc2c[nH]c4ccccc24)NC(=O)[C@H](CC(C)C)NC(=O)[C@H](CCCCN)NC3=O)NC1=O [compound 291]	38	100		
C#CC[C@H](N)C(=O)NCCOCCOCCOCCOCCC(=O)NCCCC[C@@H]1NC(=O)[C@@H]2CSSC[C@H](NC(=O)[C@@H](N)Cc3ccc(O)cc3)C(=O)N[C@@H](CCC(N)=O)C(=O)N[C@@H](CCCCN)C(=O)N[C@@H](Cc3c[nH]c4ccccc34)C(=O)N[C@@H](CCCC)C(=O)N[C@@H](Cc3c[nH]c4ccccc34)C(=O)N[C@@H]([C@@H](C)O)C(=O)N[C@H]3CSSC[C@H](NC(=O)[C@H](CCC(=O)O)NC(=O)[C@H](CC(C)C)NC(=O)CNC1=O)C(=O)N[C@@H](CCCCN)C(=O)N[C@@H](CC(C)C)C(=O)N[C@@H](Cc1c[nH]c4ccccc14)C(=O)N[C@H](C(=O)N[C@@H](CCCNC(=N)N)C(=O)N[C@@H](CCCCN)C(=O)N[C@H](C(=O)N[C@@H](Cc1c[nH]c4ccccc14)C(N)=O)[C@@H](C)CC)CSSC[C@H](NC(=O)[C@H](C)NC(=O)[C@H](CCCNC(=N)N)NC(=O)[C@H](CCCCN)NC(=O)[C@H](CO)NC(=O)[C@H](CC(=O)O)NC3=O)C(=O)N2 [compound 293]	1	1		
C#CC[C@@H]1NC(=O)[C@H](CC(=O)O)NC(=O)[C@@H]2CSSC[C@@H]3NC(=O)[C@H](CCC(=O)O)NC(=O)[C@H](CC(C)C)NC(=O)CNC(=O)[C@H](CCC(=O)O)NC(=O)[C@H](CSSC[C@H](NC(=O)[C@@H](N)Cc4ccc(O)cc4)C(=O)N[C@@H](CCC(N)=O)C(=O)N[C@@H](CCCCN)C(=O)N[C@@H](Cc4c[nH]c5ccccc45)C(=O)N[C@@H](CCCC)C(=O)N[C@@H](Cc4c[nH]c5ccccc45)C(=O)N[C@@H]([C@@H](C)O)C(=O)N2)NC(=O)[C@H](CSSC[C@@H](C(=O)N[C@@H](CCCNC(=N)N)C(=O)N[C@@H](CCCCN)C(=O)N[C@@H](Cc2ccc(O)cc2)C(=O)N[C@H](C(N)=O)[C@@H](C)CC)NC(=O)[C@H](Cc2c[nH]c4ccccc24)NC(=O)[C@H](CC(C)C)NC(=O)[C@H](CCCCN)NC3=O)NC(=O)[C@H](C)NC(=O)[C@H](CCCNC(=N)N)NC(=O)[C@H](CCCCN)NC1=O [compound 315]	643	1914		
C#CC[C@H](N)C(=O)N[C@@H](Cc1ccc(O)cc1)C(=O)N[C@H]1CSSC[C@@H]2NC(=O)[C@@H]3CSSC[C@@H](C(=O)N[C@@H](CCCNC(=N)N)C(=O)N[C@@H](CCCCN)C(=O)N[C@H](C(=O)N[C@@H](Cc4c[nH]c5ccccc45)C(N)=O)[C@@H](C)CC)NC(=O)[C@H](Cc4c[nH]c5ccccc45)NC(=O)[C@H](CC(C)C)NC(=O)[C@H](CCCCN)NC(=O)[C@H](CSSC[C@H](NC(=O)[C@H]([C@@H](C)O)NC(=O)[C@H](Cc4c[nH]c5ccccc45)NC(=O)[C@H](Cc4ccccc4)NC(=O)[C@H](Cc4c[nH]c5ccccc45)NC(=O)[C@H](CCCCN)NC(=O)[C@H](CCC(N)=O)NC1=O)C(=O)N[C@@H](CC(=O)O)C(=O)N[C@@H](CO)C(=O)N[C@@H](CCCCN)C(=O)N[C@@H](CCCNC(=N)N)C(=O)N[C@@H](C)C(=O)N3)NC(=O)[C@H](CCC(=O)O)NC(=O)[C@H](CC(C)C)NC(=O)CNC(=O)[C@H](CCC(=O)O)NC2=O [compound 298]	44	52		
CCCC[C@@H]1NC(=O)[C@H](Cc2c[nH]c3ccccc23)NC(=O)[C@H](CCCCN)NC(=O)[C@H](CCC(N)=O)NC(=O)[C@@H](NC(=O)[C@@H](N)CCCCN=[N+]=[N-])CSSC[C@@H]2NC(=O)[C@@H]3CSSC[C@@H](C(=O)N[C@@H](CCCNC(=N)N)C(=O)N[C@@H](CCCCN)C(=O)N[C@H](C(=O)N[C@@H](Cc4c[nH]c5ccccc45)C(N)=O)[C@@H](C)CC)NC(=O)[C@H](Cc4c[nH]c5ccccc45)NC(=O)[C@H](CC(C)C)NC(=O)[C@H](CCCCN)NC(=O)[C@H](CSSC[C@H](NC(=O)[C@H]([C@@H](C)O)NC(=O)[C@H](Cc4c[nH]c5ccccc45)NC1=O)C(=O)N[C@@H](CC(=O)O)C(=O)N[C@@H](CO)C(=O)N[C@@H](CCCCN)C(=O)N[C@@H](CCCNC(=N)N)C(=O)N[C@@H](C)C(=O)N3)NC(=O)[C@H](CCC(=O)O)NC(=O)[C@H](CC(C)C)NC(=O)CNC(=O)[C@H](CCC(=O)O)NC2=O [compound 304]	449	662		
C#CC[C@H](N)C(=O)N[C@@H](Cc1ccc(O)cc1)C(=O)N[C@H]1CSSC[C@@H]2NC(=O)[C@@H]3CSSC[C@@H](C(=O)N[C@@H](CCCNC(=N)N)C(=O)N[C@@H](CCCCN)C(=O)N[C@H](C(=O)N[C@@H](Cc4c[nH]c5ccccc45)C(N)=O)[C@@H](C)CC)NC(=O)[C@H](Cc4c[nH]c5ccccc45)NC(=O)[C@H](CC(C)C)NC(=O)[C@H](CCCCN)NC(=O)[C@H](CSSC[C@H](NC(=O)[C@H]([C@@H](C)O)NC(=O)[C@H](Cc4c[nH]c5ccccc45)NC(=O)[C@H](CC(C)C)NC(=O)[C@H](Cc4c[nH]c5ccccc45)NC(=O)[C@H](CCCCN)NC(=O)[C@H](CCC(N)=O)NC1=O)C(=O)N[C@@H](CC(=O)O)C(=O)N[C@@H](CO)C(=O)N[C@@H](CCCCN)C(=O)N[C@@H](CCCNC(=N)N)C(=O)N[C@@H](C)C(=O)N3)NC(=O)[C@H](CCC(=O)O)NC(=O)[C@H](CC(C)C)NC(=O)CNC(=O)[C@H](CCC(=O)O)NC2=O [compound 299]	2069	2332		
C#CC[C@H](N)C(=O)N[C@@H](Cc1ccc(O)cc1)C(=O)N[C@H]1CSSC[C@@H]2NC(=O)[C@@H]3CSSC[C@@H](C(=O)N[C@@H](CCCNC(=N)N)C(=O)N[C@@H](CCCCN)C(=O)N[C@H](C(=O)N[C@H](C(N)=O)[C@@H](C)CC)[C@@H](C)CC)NC(=O)[C@H](Cc4c[nH]c5ccccc45)NC(=O)[C@H](CC(C)C)NC(=O)[C@H](CCCCN)NC(=O)[C@H](CSSC[C@H](NC(=O)[C@H]([C@@H](C)O)NC(=O)[C@H](Cc4c[nH]c5ccccc45)NC(=O)[C@H](CCCC)NC(=O)[C@H](Cc4c[nH]c5ccccc45)NC(=O)[C@H](CCCCN)NC(=O)[C@H](CCC(N)=O)NC1=O)C(=O)N[C@@H](CC(=O)O)C(=O)N[C@@H](CO)C(=O)N[C@@H](CCCCN)C(=O)N[C@@H](CCCNC(=N)N)C(=O)N[C@@H](C)C(=O)N3)NC(=O)[C@H](CCC(=O)O)NC(=O)[C@H](CC(C)C)NC(=O)CNC(=O)[C@H](CCC(=O)O)NC2=O [compound 297]	431	642		
